{
  "source": "patent US20250221932A1",
  "about": "“IMMUNE ENHANCEMENT OF CANCER TREATMENT” (Spark Therapeutics, Inc., priority 2022, published 2025)",
  "key": {"[1]": {"test_system": "serum cytokines/chemokines", "assay": "Serum cytokine levels 4 hours after dosing in the AML model", "assay_type": "in vivo, mice (C57BL/6)", "conditions": "4 hours after first i.v. dose, 50 μg", "experimental": "(§1) Three days post-tumor cell injection, treatment (vehicle, DNA-LNP (10 μg), ADU-S100 (50 μg)) was provided by 100 μL i.v. administration given three times (day 0, 3, 6). Vehicle was made of 20% Glucose/PBS solution. LNP composition (in mole %) was Lipid 9, ˜50% (Lipid 9 is further described in Section I.A. supra and Sabnis et al., (2018) Molecular Therapy 26:6, 1509-1519); C14-PEG2000, ˜1.5%; cholesterol, ˜38.5%; and distearoylphosphatidylcholine (DSPC), ˜10%. ADU-S100 is a STING agonist (MedChemExpress).\n(§2) Serum was collected 4 hours after the first dose for cytokine/chemokine analyses. Mice (n=8) were observed daily for abnormalities and euthanized individually when the animal reached the humane endpoint.\nThree days post-tumor cell injection, treatment (vehicle, DNA-LNP (5 μg), DNA-LNP2 (5 μg)) was provided by 100 μL i.v. administration given three times (day 0, 3, 6). Serum was collected 4 hours after the first dose for cytokine/chemokine analyses. Mice (n=8) were observed daily for abnormalities and euthanized individually when the animal reached the humane endpoint."}, "[2]": {"test_system": "C1498 cells", "assay": "Acute myeloid leukemia (AML) model, survival", "assay_type": "in vivo, mice (C57BL/6)", "conditions": "50 μg i.v. day 0, 3, 6; FIG. 9", "experimental": "The ability of nanoparticle dsDNA delivery to inhibit leukemia was evaluated in a mouse model for acute myeloid leukemia (AML). The AML model was established by intravenously (i.v.) injecting C57BL/6 mice with 1×10^6 C1498 cells. (See Zhang et al., Blood 2009; 114 (8): 1545-1552 and Curran et al., 2016, Cell Reports 15, 2357-2366).\nas §1, §2\nThe ability of nanoparticle dsDNA delivery to inhibit leukemia was evaluated in the AML mouse model described in Example 5. Three days post-tumor cell injection, administration of vehicle, LNP (same amount of LNP as used in 5 μg DNA-LNP), DNA-LNP (1 μg), DNA-LNP (5 μg) was provided by 100 μL i.v. given three times (day 0, 3, 6). […]"}},
  "data": [
    {"smiles": "Nc1ncnc2c1ncn2[C@@H]1O[C@@H]2COP(=O)([S-])O[C@@H]3[C@H](O)[C@@H](COP([O-])(=S)O[C@H]2[C@H]1O)O[C@H]3n1cnc2c(N)ncnc21.[Na+].[Na+]", "note": "(stereo partly shown) [ADU-S100]", "values": [
      {"measurement": "Serum level GRO alpha, Average", "setting": "[1]", "result": 134, "unit": "pg/mL"},
      {"measurement": "Serum level IFN alpha, Average", "setting": "[1]", "result": 1775, "unit": "pg/mL"},
      {"measurement": "Serum level IFN beta, Average", "setting": "[1]", "result": 2819, "unit": "pg/mL"},
      {"measurement": "Serum level IFN gamma, Average", "setting": "[1]", "result": 7, "unit": "pg/mL"},
      {"measurement": "Serum level IL-6, Average", "setting": "[1]", "result": 2617, "unit": "pg/mL"},
      {"measurement": "Serum level IL-18, Average", "setting": "[1]", "result": 150, "unit": "pg/mL"},
      {"measurement": "Serum level MCP-1, Average", "setting": "[1]", "result": 5571, "unit": "pg/mL"},
      {"measurement": "Serum level MIP-1 beta, Average", "setting": "[1]", "result": 640, "unit": "pg/mL"},
      {"measurement": "Serum level TNF alpha, Average", "setting": "[1]", "result": 732, "unit": "pg/mL"},
      {"measurement": "survival in the AML model", "setting": "[2]", "result": "increased survival"}
    ]}
  ]
}
